From patent publication US10906940B2, “Antimicrobial peptides, pharmaceutical compositions, and methods of use thereof” (priority 2014, dated 2021)
≈ marks a conversion by molar mass, not a printed value. Where a SMILES comes first, the peptide text is derived from it. Bridges are numbered along the chain shown (N, C = ends). [ ]: non-standard residue; d: D form. The star is where a group is joined. Pentadecanoyl = CCCCCCCCCCCCCCC(=O)*; Undecanoyl = CCCCCCCCCCC(=O)*; dOrn = NCCC[C@@H](N)C(=O)O

Assays:
[1] = test system: P. aeruginosa CVM 40144 (PER-1); type: cell-based, Pseudomonas aeruginosa
Excerpt: (§1) The same MIC assay as in Example 6 was used to determine the antimicrobial susceptibility of Compound A, L-form (FIG. 15), and several variants. One variant was Compound A, D-form, with D-Lysine at position 7. Compound B is a variant in the fatty acid chain, with a fatty acid chain composition of C15H29O, and having D-Lys at position 7. Compound C is a variant in the fatty acid chain with a fatty acid chain composition of C11H21O, and having D-Lys at position 7. Variant D is a sequence variant with Phe at position 6 of the cyclic peptide, and having D-Lys at position 7. All variants were chemically synthesized.

[2] = test system: K. pneumonia CVM 40142 (ges-1); type: cell-based, Klebsiella pneumoniae
Excerpt: as §1

[3] = test system: K. pneumonia CVM 15105 (shv5); type: cell-based, Klebsiella pneumoniae
Excerpt: as §1

[4] = test system: K. pneumoniae CVM 9246 (shv18, oxa2); type: cell-based, Klebsiella pneumoniae
Excerpt: as §1

[5] = test system: K. pneumoniae CVM 15102 (shv5); type: cell-based, Klebsiella pneumoniae
Excerpt: as §1

[6] = test system: Serratia marcescens SBJ-8283; type: cell-based; conditions: SBJ-8283
Excerpt: as §1

[7] = test system: Salmonella CVM 40119 (tem 12); type: cell-based
Excerpt: as §1

[8] = test system: Serratia marcescens SAMN04022954; type: cell-based; conditions: SAMN04022954
Excerpt: as §1

[9] = test system: Serratia marcescens SAMN 04276915; type: cell-based; conditions: SAMN 04276915
Excerpt: as §1

[10] = test system: Salmonella CVM 40118 (oxa-1); type: cell-based
Excerpt: as §1

[11] = test system: Serratia marcescens SBJ-9047; type: cell-based; conditions: SBJ-9047
Excerpt: as §1

[12] = test system: E. coli CVM 40134 (ctx-m-15); type: cell-based, Escherichia coli
Excerpt: as §1

[13] = test system: E. coli CVM 40126 (oxa-1); type: cell-based, Escherichia coli
Excerpt: as §1

[14] = test system: E. coli CVM 40147 (vim-2); type: cell-based, Escherichia coli
Excerpt: as §1

[15] = test system: E. coli CVM 40143 (act-1); type: cell-based, Escherichia coli
Excerpt: as §1

[16] = test system: E. coli CVM 15100 (mir1); type: cell-based, Escherichia coli
Excerpt: as §1

[17] = test system: E. coli CVM 40127 (oxa-2); type: cell-based, Escherichia coli
Excerpt: as §1

[18] = test system: E. coli CVM 40136 (tem 52b); type: cell-based, Escherichia coli
Excerpt: as §1

[19] = test system: E. coli CVM 15103 (tem2); type: cell-based, Escherichia coli
Excerpt: as §1

[20] = test system: E. coli CVM 40130 (oxa-9); type: cell-based, Escherichia coli
Excerpt: as §1

[21] = test system: E. coli CVM40148 (veb-1); type: cell-based, Escherichia coli
Excerpt: as §1

[22] = test system: E. coli CVM 40131 (ctx-m-2); type: cell-based, Escherichia coli
Excerpt: as §1

[23] = test system: E. coli CVM 40128 (oxa-7); type: cell-based, Escherichia coli
Excerpt: as §1

[24] = test system: E. coli CVM 40133 (ctx-m-14); type: cell-based, Escherichia coli
Excerpt: as §1

[25] = test system: E. coli CVM 40141 (imp-1); type: cell-based, Escherichia coli
Excerpt: as §1

[26] = test system: E. coli CVM 40139 (fox-1); type: cell-based, Escherichia coli
Excerpt: as §1

[27] = test system: E. coli CVM40146 (vim-1); type: cell-based, Escherichia coli
Excerpt: as §1

[28] = test system: E. coli CVM 15104 (shv3); type: cell-based, Escherichia coli
Excerpt: as §1

[29] = test system: E. coli CVM 40137 (DHA-1); type: cell-based, Escherichia coli
Excerpt: as §1

[30] = test system: E. coli CVM 40129 (oxa-5); type: cell-based, Escherichia coli
Excerpt: as §1

[31] = test system: E. coli CVM 40138 (LCR-1); type: cell-based, Escherichia coli
Excerpt: as §1

[32] = test system: E. coli CVM 35778 (ctx-m-2); type: cell-based, Escherichia coli
Excerpt: as §1

[33] = test system: E. coli CVM 40132 (ctx-m-9); type: cell-based, Escherichia coli
Excerpt: as §1

[34] = test system: E. faecalis ATCC 51575; assay: microbe, parasite or virus in culture; type: cell-based, Enterococcus faecalis; conditions: ATCC 51575
Excerpt: as §1

[35] = test system: E. faecalis BAA-2365; assay: microbe, parasite or virus in culture; type: cell-based, Enterococcus faecalis; conditions: BAA-2365
Excerpt: as §1

[36] = test system: E. faecium BAA-2318; assay: microbe, parasite or virus in culture; type: cell-based; conditions: BAA-2318
Excerpt: as §1

[37] = test system: E. faecium ATCC 700221; assay: microbe, parasite or virus in culture; type: cell-based; conditions: ATCC 700221
Excerpt: as §1

[38] = test system: E. faecium ATCC 2320; assay: microbe, parasite or virus in culture; type: cell-based; conditions: ATCC 2320
Excerpt: as §1

[39] = test system: E. cloacae CVM 15101 (P99); type: cell-based, Enterobacter cloacae
Excerpt: as §1

Structure (SMILES) | MIC [1] | MIC [2] | MIC [3] | MIC [4] | MIC [5] | MIC [6] | MIC [7] | MIC [8] | MIC [9] | MIC [10] | MIC [11] | MIC [12] | MIC [13] | MIC [14] | MIC [15] | MIC [16] | MIC [17] | MIC [18] | MIC [19] | MIC [20] | further results
CCCCCCCCCCC(=O)N[C@H](CCCN)C(=O)N[C@H](C(=O)N[C@@H]1C(=O)N[C@H](CCCN)C(=O)N[C@@H](CO)C(=O)N[C@@H](Cc2ccc(O)cc2)C(=O)N[C@H](CCCCN)C(=O)N[C@H](CO)C(=O)N[C@@H]([C@@H](C)CC)C(=O)N2CCC[C@H]2C(=O)N[C@@H]([C@@H](C)CC)C(=O)N2CCC[C@H]2C(=O)N[C@@H]([C@@H](C)CC)C(=O)O[C@@H]1C)C(C)C [Compound C] (Undecanoyl-[dOrn]VT[dOrn]SY[dK][dS]IPIPI; ester 3-C; N-terminus assumed) | 16 µg/mL (≈ 10 µM) | 8 µg/mL (≈ 5.01 µM) | 8 µg/mL (≈ 5.01 µM) | 8 µg/mL (≈ 5.01 µM) | 8 µg/mL (≈ 5.01 µM) | 32 µg/mL (≈ 20 µM) | 8 µg/mL (≈ 5.01 µM) | 64 µg/mL (≈ 40.1 µM) | ≥128 µg/mL | 4 µg/mL (≈ 2.51 µM) | 64 µg/mL (≈ 40.1 µM) | 8 µg/mL (≈ 5.01 µM) | 8 µg/mL (≈ 5.01 µM) | 16 µg/mL (≈ 10 µM) | 8 µg/mL (≈ 5.01 µM) | 8 µg/mL (≈ 5.01 µM) | 8 µg/mL (≈ 5.01 µM) | 8 µg/mL (≈ 5.01 µM) | 8 µg/mL (≈ 5.01 µM) | 8 µg/mL (≈ 5.01 µM) | MIC [21]: 8 µg/mL (≈ 5.01 µM); MIC [22]: 8 µg/mL (≈ 5.01 µM); MIC [23]: 8 µg/mL (≈ 5.01 µM); MIC [24]: 8 µg/mL (≈ 5.01 µM); MIC [25]: 32 µg/mL (≈ 20 µM); MIC [26]: 8 µg/mL (≈ 5.01 µM); MIC [27]: 8 µg/mL (≈ 5.01 µM); MIC [28]: 8 µg/mL (≈ 5.01 µM); MIC [29]: 8 µg/mL (≈ 5.01 µM); MIC [30]: 8 µg/mL (≈ 5.01 µM); MIC [31]: 8 µg/mL (≈ 5.01 µM); MIC [32]: 16 µg/mL (≈ 10 µM); MIC [33]: 8 µg/mL (≈ 5.01 µM); MIC [34]: 32 µg/mL (≈ 20 µM); MIC [35]: 32 µg/mL (≈ 20 µM); MIC [36]: 8 µg/mL (≈ 5.01 µM); MIC [37]: 8 µg/mL (≈ 5.01 µM); MIC [38]: 8 µg/mL (≈ 5.01 µM); MIC [39]: 8 µg/mL (≈ 5.01 µM)
CCCCCCCCCCCCCCC(=O)N[C@H](CCCN)C(=O)N[C@H](C(=O)N[C@@H]1C(=O)N[C@H](CCCN)C(=O)N[C@@H](CO)C(=O)N[C@@H](Cc2ccc(O)cc2)C(=O)N[C@H](CCCCN)C(=O)N[C@H](CO)C(=O)N[C@@H]([C@@H](C)CC)C(=O)N2CCC[C@H]2C(=O)N[C@@H]([C@@H](C)CC)C(=O)N2CCC[C@H]2C(=O)N[C@@H]([C@@H](C)CC)C(=O)O[C@@H]1C)C(C)C [Compound B] (Pentadecanoyl-[dOrn]VT[dOrn]SY[dK][dS]IPIPI; ester 3-C; N-terminus assumed) | 32 µg/mL (≈ 19.4 µM) | 16 µg/mL (≈ 9.68 µM) | 16 µg/mL (≈ 9.68 µM) | 8 µg/mL (≈ 4.84 µM) | 8 µg/mL (≈ 4.84 µM) | 32 µg/mL (≈ 19.4 µM) | 8 µg/mL (≈ 4.84 µM) | ≥128 µg/mL | ≥128 µg/mL | 4 µg/mL (≈ 2.42 µM) | ≥128 µg/mL | 8 µg/mL (≈ 4.84 µM) | 4 µg/mL (≈ 2.42 µM) | 16 µg/mL (≈ 9.68 µM) | 16 µg/mL (≈ 9.68 µM) | 16 µg/mL (≈ 9.68 µM) | 16 µg/mL (≈ 9.68 µM) | 8 µg/mL (≈ 4.84 µM) | 8 µg/mL (≈ 4.84 µM) | 8 µg/mL (≈ 4.84 µM) | MIC [21]: 8 µg/mL (≈ 4.84 µM); MIC [22]: 8 µg/mL (≈ 4.84 µM); MIC [23]: 8 µg/mL (≈ 4.84 µM); MIC [24]: 16 µg/mL (≈ 9.68 µM); MIC [25]: 16 µg/mL (≈ 9.68 µM); MIC [26]: 16 µg/mL (≈ 9.68 µM); MIC [27]: 8 µg/mL (≈ 4.84 µM); MIC [28]: 16 µg/mL (≈ 9.68 µM); MIC [29]: 16 µg/mL (≈ 9.68 µM); MIC [30]: 8 µg/mL (≈ 4.84 µM); MIC [31]: 8 µg/mL (≈ 4.84 µM); MIC [32]: 32 µg/mL (≈ 19.4 µM); MIC [33]: 16 µg/mL (≈ 9.68 µM); MIC [34]: 8 µg/mL (≈ 4.84 µM); MIC [35]: 4 µg/mL (≈ 2.42 µM); MIC [36]: 4 µg/mL (≈ 2.42 µM); MIC [37]: 4 µg/mL (≈ 2.42 µM); MIC [38]: 4 µg/mL (≈ 2.42 µM); MIC [39]: 8 µg/mL (≈ 4.84 µM)
